Like-named read-outs stand apart in the source and are kept apart here.
Experiments:
EcCdnD = EcCdnD (Enterobacter hormaechei, UniProt P0DSP4); format: biochemical; details: 10 mM MgCl2, 50 mM CAPSO pH 9.4, 37 °C
AbCdnD = biological target: T1, AbCdnD (Acinetobacter sp. ATCC 27244, UniProt C0VHD2); assay: cyclic oligonucleotide synthesis; format: biochemical; details: K+, Mg2+, Mn2+, pH 9.0-9.4, 37 °C
T1 sequence (C0VHD2 1-343): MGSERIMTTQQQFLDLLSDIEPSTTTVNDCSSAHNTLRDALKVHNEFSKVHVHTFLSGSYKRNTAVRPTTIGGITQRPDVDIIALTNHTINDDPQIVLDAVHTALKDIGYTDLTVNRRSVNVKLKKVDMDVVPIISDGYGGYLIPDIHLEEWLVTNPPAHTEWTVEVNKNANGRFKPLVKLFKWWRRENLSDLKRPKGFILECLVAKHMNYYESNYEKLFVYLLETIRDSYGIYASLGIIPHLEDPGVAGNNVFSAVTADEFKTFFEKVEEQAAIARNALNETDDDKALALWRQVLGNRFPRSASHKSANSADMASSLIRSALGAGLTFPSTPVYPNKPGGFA

AbCap4 K69A = AbCap4 K69A (Acinetobacter baumannii, UniProt C0VHC9 1-462, K69A); assay: EMSA
EcCap4 K74A = biological target: T2, EcCap4 K74A (Enterobacter cloacae, UniProt P0DUD5 1-499, K74A); assay: EMSA
T2 sequence: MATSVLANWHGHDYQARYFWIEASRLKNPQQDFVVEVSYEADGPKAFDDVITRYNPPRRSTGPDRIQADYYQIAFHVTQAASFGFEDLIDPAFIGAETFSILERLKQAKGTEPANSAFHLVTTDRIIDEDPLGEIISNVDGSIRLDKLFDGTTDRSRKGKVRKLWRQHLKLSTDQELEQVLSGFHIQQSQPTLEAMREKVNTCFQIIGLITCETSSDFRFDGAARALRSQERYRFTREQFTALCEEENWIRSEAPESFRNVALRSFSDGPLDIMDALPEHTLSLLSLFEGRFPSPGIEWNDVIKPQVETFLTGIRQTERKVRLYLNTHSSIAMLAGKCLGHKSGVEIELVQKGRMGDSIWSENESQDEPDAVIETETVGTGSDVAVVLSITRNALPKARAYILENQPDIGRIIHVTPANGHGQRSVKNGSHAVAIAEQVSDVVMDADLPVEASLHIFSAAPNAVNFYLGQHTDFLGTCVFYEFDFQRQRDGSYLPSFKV

## Nc1nc2c(ncn2[C@@H]2O[C@H](COP(=O)(O)OP(=O)(O)OP(=O)(O)O)[C@@H](O)[C@H]2O)c(=O)[nH]1 [GTP]
EcCdnD; co-substrate ATP
  TLC with 32P-label: EcCdnD: ATP, GTP

## Nc1ncnc2c1ncn2[C@@H]1O[C@H](COP(=O)(O)OP(=O)(O)OP(=O)(O)O)[C@@H](O)[C@H]1O [ATP]
AbCdnD
  cyclic oligonucleotide synthesis; AbCap4 activation, TLC, HPLC: ATP is necessary and sufficient to allow AbCdnD to synthesize the activating nucleotide second messenger
EcCdnD; co-substrate GTP, labelled compound
  TLC with 32P-label: EcCdnD: ATP, GTP

B1: DNA45 (45 bp DNA) (dsDNA)
DNA 1: TACAGATCTACTAGTGATCTATGACTGATCTGTACATGATCTACA
DNA 2: TGTAGATCATGTACAGATCAGTCATAGATCACTAGTAGATCTGTA
AbCap4 K69A
  binding result: binds
EcCap4 K74A
  binding result: binds

From publication PMC7728545 (Cell, 2020)
